# Laboratory results: US20260191856A1 (priority 2022, published 2026)
# Values joined by “and” are separate entries in the source; they are usually repeats but may differ in a detail not shown here. Identical values can stand only once. “Also recorded” adds a separate entry of the source. Like-named read-outs stand apart in the source and are kept apart here. Marks after values point to notes of the source that are not given here.
# Key:
# MOR [1] = target: T1, MOR (Homo sapiens, UniProt P35372); type: cell-based
# T1 construct: expressed in transfected cells; host or cells: HEK293T
# MOR [2] = target: T1, MOR; type: cell-based; remark: listed apart in the source
# MOR [3] = target: T1, MOR; test: TRUPATH subtype selectivity, MOR/DAMGO; type: cell-based; settings: compound A3 up to 30 μM
# δOR = target: T2, δOR (Homo sapiens, UniProt P41143); test: TRUPATH subtype selectivity, δOR/DPDPE; type: cell-based; settings: compound A3 up to 30 μM
# T2 construct: expressed in transfected cells; host or cells: HEK293T (method is written for MOR)
# κOR = target: T3, κOR (Homo sapiens, UniProt P41145); test: TRUPATH subtype selectivity, κOR/U50488; type: cell-based; settings: compound A3 up to 30 μM
# T3 construct: expressed in transfected cells; host or cells: HEK293T (method is written for MOR)
# male C57BL/6J mice [4] = settings: mouse, in vivo
# male C57BL/6J mice [5] = test: Conditioned place preference (CPP) assay; type: in vivo, mouse
# [6] = male, C57BL/6J, mouse, in vivo, iv, 10 mg/kg
# in vivo = settings: male, C57BL/6J, mouse, iv, 10 mg/kg
# male C57BL/6J mice [7] = test: Locomotor and respiration effects (CLAMS)
# male C57BL/6J mice [8] = test: Naloxone-precipitated opioid withdrawal assay
# MOR [9] = target: T4, MOR (Mus musculus, UniProt P42866); test: biochemical; type: binding; set-up: made in house; host or cells: Sf9 insect cell membranes (baculovirus)
# MOR [10] = target: T4, MOR; type: biochemical; set-up: FLAG (N); hexa-histidine (C); made in house; host or cells: Spodoptera frugiperda (Sf9) for MOR; Trichoplusia ni for Gi
# CB1 [11] = target: T5, CB1 (Homo sapiens, UniProt P21554); test: 3H-SR141716A radioligand binding to CB1-containing membranes; set-up: made in house; host or cells: insect cell membranes (inferred from 'similar manner' to the Sf9 MOR membranes); settings: compared with ZCZ
# Experimental: CB1-containing membranes prepared in a similar manner to the μOR-containing membranes prepared above were diluted 1:2000 in 50 mM HEPES pH 7.4, 5 mM EDTA, 5 mM MgCl2, and 1% bovine serum albumin (BSA). 96-well plates precoated with blocking buffer (20 mM HEPES (pH 7.4), 100 mM NaCl, and 0.05% BSA) were used as reaction plates. For “competition” binding experiments, membranes were incubated with 6 nM ^3H-SR141716a (50.9 Ci/mmol; Perkin Elmer) and serially diluted allosteric modulators for 1 hour at room temperature with shaking. Following incubation, membranes were rapidly bound to double thick 90×120 mm glass fibre Printed Filtermat B filters (Perkin Elmer) presoaked in 0.33% (v/v) polyethylenimine and washed with cold binding buffer (20 mM HEPES pH 7.4, 100 mM NaCl) using a MicroBeta Filtermat-96 cell harvester (Perkin Elmer). ^3H-SR141716a bound membranes on Filtermats were measured with a MicroBeta counter (Perkin Elmer) after addition of MultiLex B/HS melt-on scintillator sheets (Perkin Elmer) and data values were plotted after normalizing total counts per minute to the highest and lowest values.
# CB1 [12] = target: T5, CB1; test: GTP turnover assay with CB1 and Gi1; type: biochemical; set-up: Purification of human full-length CB1 with an N-terminal FLAG and C-terminal hexahistidine tags; FLAG (N); hexahistidine (C); made in house; host or cells: insect cells (baculovirus, Expression Systems) for CB1; Trichoplusia ni for Gi
# [13] = compound A3 1-100 mg/kg + naloxone 0.1 mg/kg, maximal at 100 mg/kg
# [14] = Condition 4 morphine + compound A3 (100 mg/kg) + low NAL (0.1 mg/kg)
# [15] = Condition 1 saline + NAL (10 mg/kg)
# [16] = Condition 2 morphine + NAL (10 mg/kg)
# [17] = Condition 3 morphine + low NAL (0.1 mg/kg)
# [18] = Condition 3 morphine + low NAL (0.1 mg/kg), listed as NAL
# T4 sequence (P42866 whole entry): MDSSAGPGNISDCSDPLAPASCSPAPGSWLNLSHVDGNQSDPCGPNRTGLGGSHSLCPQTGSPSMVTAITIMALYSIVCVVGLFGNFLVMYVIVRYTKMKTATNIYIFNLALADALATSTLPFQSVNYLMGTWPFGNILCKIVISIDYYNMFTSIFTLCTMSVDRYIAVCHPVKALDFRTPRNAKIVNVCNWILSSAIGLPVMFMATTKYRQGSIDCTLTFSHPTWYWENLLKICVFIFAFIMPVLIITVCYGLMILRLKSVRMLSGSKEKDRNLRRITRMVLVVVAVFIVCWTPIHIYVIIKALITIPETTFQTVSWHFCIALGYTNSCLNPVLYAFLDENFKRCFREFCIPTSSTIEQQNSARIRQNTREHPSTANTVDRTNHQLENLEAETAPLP
# T5 sequence (P21554 whole entry): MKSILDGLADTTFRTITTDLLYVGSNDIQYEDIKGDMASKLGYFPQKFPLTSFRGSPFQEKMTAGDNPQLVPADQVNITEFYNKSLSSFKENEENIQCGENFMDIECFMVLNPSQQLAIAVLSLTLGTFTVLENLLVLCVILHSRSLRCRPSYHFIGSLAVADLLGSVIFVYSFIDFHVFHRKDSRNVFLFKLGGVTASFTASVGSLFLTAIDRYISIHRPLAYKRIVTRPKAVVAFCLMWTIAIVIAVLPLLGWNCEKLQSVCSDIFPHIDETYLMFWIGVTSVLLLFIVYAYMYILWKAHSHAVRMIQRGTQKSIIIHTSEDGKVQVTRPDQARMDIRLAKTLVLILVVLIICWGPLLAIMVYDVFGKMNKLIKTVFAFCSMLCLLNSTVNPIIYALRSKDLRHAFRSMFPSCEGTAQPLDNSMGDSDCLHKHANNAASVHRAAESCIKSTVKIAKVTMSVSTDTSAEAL
# T1 sequence (P35372 whole entry): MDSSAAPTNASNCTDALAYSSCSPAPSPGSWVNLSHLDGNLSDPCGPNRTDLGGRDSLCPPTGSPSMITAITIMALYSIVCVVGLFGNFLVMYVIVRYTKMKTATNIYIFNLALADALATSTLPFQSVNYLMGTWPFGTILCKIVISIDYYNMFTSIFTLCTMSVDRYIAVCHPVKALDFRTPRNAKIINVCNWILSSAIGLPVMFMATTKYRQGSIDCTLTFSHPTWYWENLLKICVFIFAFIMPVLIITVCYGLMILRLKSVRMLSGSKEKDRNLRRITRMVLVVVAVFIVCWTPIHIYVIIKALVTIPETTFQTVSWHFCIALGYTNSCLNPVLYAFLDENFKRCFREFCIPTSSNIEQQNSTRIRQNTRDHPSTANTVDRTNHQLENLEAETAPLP
# T2 sequence (P41143 whole entry): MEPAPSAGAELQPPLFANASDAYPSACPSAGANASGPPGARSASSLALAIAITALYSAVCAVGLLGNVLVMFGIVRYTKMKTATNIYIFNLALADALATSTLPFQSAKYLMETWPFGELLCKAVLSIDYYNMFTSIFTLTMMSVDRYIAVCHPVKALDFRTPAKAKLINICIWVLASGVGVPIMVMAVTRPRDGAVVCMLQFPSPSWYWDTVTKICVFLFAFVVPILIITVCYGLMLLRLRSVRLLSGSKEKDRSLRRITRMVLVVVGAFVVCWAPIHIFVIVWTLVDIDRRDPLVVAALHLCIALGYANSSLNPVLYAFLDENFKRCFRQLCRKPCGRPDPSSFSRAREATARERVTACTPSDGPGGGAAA
# T3 sequence (P41145 whole entry): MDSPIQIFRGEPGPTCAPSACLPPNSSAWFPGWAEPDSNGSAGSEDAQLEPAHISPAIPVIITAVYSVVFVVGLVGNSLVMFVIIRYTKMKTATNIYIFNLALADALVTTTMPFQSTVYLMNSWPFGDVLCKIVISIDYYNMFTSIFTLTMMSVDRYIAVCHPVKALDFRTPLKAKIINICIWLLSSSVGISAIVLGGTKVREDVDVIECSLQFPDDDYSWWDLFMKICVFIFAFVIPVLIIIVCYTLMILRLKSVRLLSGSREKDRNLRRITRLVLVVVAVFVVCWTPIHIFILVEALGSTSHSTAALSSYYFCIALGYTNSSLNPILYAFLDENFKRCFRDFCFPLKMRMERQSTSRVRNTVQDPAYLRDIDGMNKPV
compound,measurement,setting,value
"CNC(=O)C(Cc1ccc(C)c(OC)c1)NC(=O)CSc1ccc2ccccc2c1-c1cncc(OCc2ccccc2)c1 (racemic) [Compound A3, 2-(2-((1-(5-(benzyloxy)pyridin-3-yl)naphthalen-2-yl)thio)acetamido)-3-(3-methoxy-4-methylphenyl)-N-methylpropanamide]",enhancement of observed potency of naloxone for inhibiting agonist-induced signaling,MOR [1],7.6
same,inhibition across Gi/o subtypes,MOR [2],all Ci/o subtypes were inhibited nearly equally
same,right-shift in DAMGO potency at the MOR,MOR [3],3.7 fold
same,right-shift in DPDPE potency at δOR,δOR,"caused a right-shift in DPDPE potency at SOR, though to a lesser extent"
same,"effect at κOR activation by U50,488",κOR,"No effect is observed at KOR activation by U50,488"
same,"impact on morphine-induced antinociception, compound alone",male C57BL/6J mice [4],no significant impact on morphine-induced antinociception
same,inhibition of morphine-induced antinociception in the presence of low-dose naloxone,male C57BL/6J mice [4],significantly inhibits morphine-induced antinociception in a dose-dependent manner
same,median dose to potentiate low-dose naloxone antagonism of morphine antinociception,male C57BL/6J mice [4],"1.15 (0.03-4.04) mg/kg, s.c."
same,morphine CPP after compound A3 and low-dose naloxone,male C57BL/6J mice [5]; compound A3 100 mg/kg sc (−30 min) + naloxone 0.1 mg/kg s.c.,morphine CPP was eliminated
same,brain penetration,[6],~ 25 % of maximum plasma levels
same,half-life,in vivo,44.4 min
same,enhancement of low-dose naloxone inhibition of morphine-induced hyperlocomotion,male C57BL/6J mice [7]; [13],significantly enhances low-dose naloxone inhibition of hyperlocomotion
same,enhancement of low-dose naloxone inhibition of morphine-induced respiratory depression,male C57BL/6J mice [7]; [13],significantly enhances low-dose naloxone inhibition
same,"ambulation or breathing rate, compound itself","male C57BL/6J mice [7]; compound A3 alone, relative to vehicle",does not change ambulation or breathing rate relative to vehicle administration
same,"Forepaw Licking Frequency, Avg",male C57BL/6J mice [8]; [14],0.6
same,"Forepaw Tremor, Avg",male C57BL/6J mice [8]; [14],1.6
same,"Rearing Frequency, Avg",male C57BL/6J mice [8]; [14],1.6*
same,"Straightening, Avg",male C57BL/6J mice [8]; [14],0.2
same,"Wet Dog shakes, Avg",male C57BL/6J mice [8]; [14],1.1
same,"magnitude of naloxone-precipitated withdrawal, combined low-dose naloxone/NAM treatment","male C57BL/6J mice [8]; compound A3 100 mg/kg s.c. + naloxone 0.1 mg/kg s.c., morphine-dependent mice",did not potentiate the magnitude of withdrawal caused by a low-dose of naloxone alone to the same levels of withdrawal symptoms as the conventional naloxone treatment
same,EC50,"MOR [9]; EC50 of increased binding of 3H-naloxone, MOR-expressing membranes",130 nM and 133 nM
same,increase in 3H-naloxone affinity,MOR [9]; in the presence of excess A3,~ 2.6 fold and 2.6 fold
same,enhancement of observed on-rate of 3H-naloxone,MOR [9]; orthosteric site saturated with mitragynine pseudoindoxyl,> 10 fold
same,GTP turnover in the absence of orthosteric ligand,MOR [10],inhibits turnover of the receptor in the absence of orthosteric ligand; also recorded: inhibited receptor-catalyzed GTP turnover in the absence of orthosteric ligands
same,effect on met-enkephalin induced activation of G protein (GTP turnover),MOR [10],significantly inhibits met-enkephalin induced activation of Gi; also recorded: inhibited MOR/met-enkephalin induced activation of Gl
same,efficacy of modulation of met-enkephalin-induced GTP turnover,MOR [10],inhibiting GTP depletion to nearly the same levels as those observed for G in the absence of any receptor catalyst; also recorded: nearly eliminating receptor induced GTP turnover
same,potency in GTP turnover assay,MOR [10],single-digit μM range
same,potency of A3 at inhibiting relative to A1 at enhancing MOR/met-enkephalin induced activation of G,MOR [10],> 10 fold
CNC(=O)[C@H](Cc1ccc(C#N)cc1)NCc1csc(-c2cccc(-c3ccc4cc(N)ccc4c3)c2)n1 [Compound A1],decrease in naloxone affinity for the receptor,MOR [9]; in the presence of A1,~ 6 fold
same,effect on binding of 3H-naloxone,"MOR [9]; increasing amounts of compound, MOR-expressing membranes",decrease binding of ^3H-naloxone to MOR-expressing membranes
same,GTP turnover in the absence of orthosteric ligand,MOR [10],can induce GTP turnover to similar levels observed for the full agonist DAMGO
same,effect on met-enkephalin induced activation of G protein (GTP turnover),MOR [10],enhance met-enkephalin induced activation of G protein
same,efficacy of modulation of met-enkephalin-induced GTP turnover,MOR [10],"more efficacious at improving GTP turnover compared to A2; also recorded: highly effective at enhancing activity, fully depleting nucleotide under these conditions"
same,potency in GTP turnover assay,MOR [10],low double-digit micromolar
CNC(=O)c1nc2ccc(N3CC(N)C3)nn2c1-c1ccc(OCc2ccccc2)c(F)c1 [Compound A4],effect on 3H-SR141716A antagonist binding,CB1 [11],"binds CB1 and decreases antagonist affinity though with lower potency than the known PAM, ZCZ"
same,"effect on Gi1 GTP turnover, AEA-bound CB1",CB1 [12]; AEA,not AEA-bound CB1
same,"effect on Gi1 GTP turnover, FUB-bound CB1",CB1 [12]; FUB (MDMB-Fubinaca),enhance FUB-induced Gi turnover; also recorded: specifically able to increase turnover for FUB-bound CB1
"CNC(=O)[C@H](Cc1ccc(C)c(OC)c1)NC(=O)CSc1ccc2ccccc2c1-c1cncc(OCc2ccccc2)c1 [Compound B1, (S)-2-(2-((1-(5-(benzyloxy)pyridin-3-yl)naphthalen-2-yl)thio)acetamido)-3-(3-methoxy-4-methylphenyl)-N-methylpropanamide]","potency of B1 relative to B2, 3H-naloxone results",MOR [9]; FIG. 5A,≥ 100 fold
same,"potency of B1 relative to B2, GTP turnover assays",MOR [10],≥ 100
CN1CC[C@]23c4c5ccc(O)c4O[C@H]2[C@@H](O)C=C[C@H]3[C@H]1C5 [Morphine],ambulations,"male C57BL/6J mice [7]; Morphine (20 mg/kg, s.c.)",significantly increased ambulations for over 140 min
same,breathing rate,"male C57BL/6J mice [7]; Morphine (20 mg/kg, s.c.)",decreased breathing rate through 100 min
C=CCN1CC[C@]23c4c5ccc(O)c4O[C@H]2C(=O)CC[C@@]3(O)[C@H]1C5 [Naloxone],antagonism of morphine-induced antinociception by low-dose naloxone alone,male C57BL/6J mice [4],no significant antagonism
same,morphine CPP after vehicle and low-dose naloxone,male C57BL/6J mice [5]; vehicle (−30 min) + naloxone 0.1 mg/kg s.c. (−15 min),did not prevent significant morphine CPP
same,effect of low-dose naloxone pretreatment on morphine-induced hyperlocomotion,male C57BL/6J mice [7]; naloxone 0.1 mg/kg,ineffective in ameliorating morphine-induced hyperlocomotion
same,effect of low-dose naloxone pretreatment on morphine-induced respiratory depression,male C57BL/6J mice [7]; naloxone 0.1 mg/kg,observed to reduce morphine-induced respiratory depression
same,"Forepaw Tremor, Avg",male C57BL/6J mice [8]; [15],26.7
same,"Jumping Frequency, Avg",male C57BL/6J mice [8]; [15],2.7
same,"Rearing Frequency, Avg",male C57BL/6J mice [8]; [15],23.5
same,"Stool Consistency, Avg",male C57BL/6J mice [8]; [15],1.6
same,"Straightening, Avg",male C57BL/6J mice [8]; [15],0.1
same,"Teeth Chattering Frequency, Avg",male C57BL/6J mice [8]; [15],1
same,"Forepaw Tremor, Avg",male C57BL/6J mice [8]; [16],26.7
same,"Jumping Frequency, Avg",male C57BL/6J mice [8]; [16],76.9*
same,"Rearing Frequency, Avg",male C57BL/6J mice [8]; [16],2.64*
same,"Stool Consistency, Avg",male C57BL/6J mice [8]; [16],precipitates significant diarrhea
same,"Straightening, Avg",male C57BL/6J mice [8]; [16],0.55
same,"Teeth Chattering Frequency, Avg",male C57BL/6J mice [8]; [16],54.2*
same,"Stool Consistency, Avg","male C57BL/6J mice [8]; Condition 2 morphine + NAL (10 mg/kg), listed as NAL",7.46*
same,"Forepaw Tremor, Avg",male C57BL/6J mice [8]; [17],7.3
same,"Jumping Frequency, Avg",male C57BL/6J mice [8]; [17],caused significant withdrawal symptoms
same,"Rearing Frequency, Avg",male C57BL/6J mice [8]; [17],22.2
same,"Stool Consistency, Avg",male C57BL/6J mice [8]; [17],precipitates significant diarrhea
same,"Straightening, Avg",male C57BL/6J mice [8]; [17],3.1
same,"Teeth Chattering Frequency, Avg",male C57BL/6J mice [8]; [17],had no effect relative to saline alone
same,"Jumping Frequency, Avg",male C57BL/6J mice [8]; [18],45.4*†
same,"Stool Consistency, Avg",male C57BL/6J mice [8]; [18],9.3*
same,"Teeth Chattering Frequency, Avg",male C57BL/6J mice [8]; [18],0.7+
"Cc1ccc2c(C(C[N+](=O)[O-])c3cccs3)c(-c3ccccc3)[nH]c2c1 (stereo not drawn) [ZCZ, reference compound]","effect on Gi1 GTP turnover, AEA-bound CB1",CB1 [12],"causes increased Gi1 turnover for both FUB and AEA, equally"
same,"effect on Gi1 GTP turnover, FUB-bound CB1",CB1 [12],"causes increased Gi1 turnover for both FUB and AEA, equally"
